Measurements as given in US20260157986A1, “METHODS OF TREATMENT OF PRIMARY BILIARY CHOLANGITIS” (Ipsen Pharma, priority 2024, published 2026).

What was measured:
[1] = system: patients with PBC; conditions: in vivo; cited from earlier work
[2] = system: patients with PBC; conditions: cited from earlier work
[3] = system: participants with PBC with inadequate response or intolerance to UDCA; assay: ELATIVE phase III double-blind, randomised, placebo-controlled study (GFT505B-319-1, NCT04526665); format: in vivo, human
Method: This was assessed based on the primary endpoint, which combined reductions in ALP and total bilirubin (TB).

[4] = system: subjects with PBC; assay: Clinical study, not further specified (Summary); format: in vivo, human; conditions: treatment of subjects with elafibranor
[5] = system: participants with PBC and baseline ALP >1×ULN and <1.67×ULN; assay: Phase IIIb randomised, double-blind, placebo-controlled, two-arm study (Example 1); format: in vivo, human; conditions: 80 mg once daily versus placebo; baseline ALP more than 1×ULN and at most 1.67×ULN

Structure (SMILES): C[C@H](CCC(=O)O)[C@H]1CC[C@H]2[C@@H]3[C@@H](O)C[C@@H]4C[C@H](O)CC[C@]4(C)[C@H]3CC[C@]12C [UDCA, Ursodeoxycholic acid]
- proportion of PBC patients intolerant to UDCA [1]: up to 5%

Structure (SMILES): CC[C@H]1[C@@H](O)[C@@H]2[C@H](CC[C@]3(C)[C@@H]([C@H](C)CCC(=O)O)CC[C@@H]23)[C@@]2(C)CC[C@@H](O)C[C@@H]12 [obeticholic acid]
- liver failure ([2]; patients with advanced cirrhosis): reports of patients with advanced cirrhosis developing liver failure
- pruritus ([2]; second line therapy): clinically significant pruritus has been reported in a significant portion of patients

Structure (SMILES): CSc1ccc(C(=O)/C=C/c2cc(C)c(OC(C)(C)C(=O)O)c(C)c2)cc1 [elafibranor]
- improvement in cholestasis (primary endpoint combining reductions in ALP and total bilirubin) ([3]; compared to placebo, double-blind period): greater improvement in cholestasis compared to placebo
- safety and tolerability ([3]; patients with PBC): safe and well-tolerated
- biochemical markers in the plasma [4]: relevant reduction of biochemical markers in the plasma
- prevention of clinical outcome events showing disease worsening (including progression leading to liver transplant or death) [5]: better than placebo
